Measured values reported in patent US7063857B1, “Use of macrolide compounds for the treatment of dry eye” (Sucampo AG, priority 1999, dated 2006).

Legend:
[1] = system: person having subjective symptoms of dry eye; assay: Instillation of FK506 eye drop in a person with subjective symptoms of dry eye; assay type: in vivo, human; settings: 0.06% eye drop (suspension), twice a day for two weeks, one patient
Description: Using FK506 as the active ingredient in the present invention, a 0.06% eye drop (suspension) having the following formulation was used as a test drug. A suspension having the following formulation was produced in the same manner as in EP-A-0406791 (Example 6). [table]

healthy subjects = assay: Tear film breakup time (BUT) after instillation in healthy subjects; assay type: in vivo, human; settings: instilled four times a day for 7 days, healthy subjects (6 per group), right eye, difference between before and 8 days after instillation
Procedure: A suspension having the same formulation as in Example 1 was produced using FK506 as the active ingredient to give a 0.01% FK506 eye drop (suspension) and 0.1% FK506 eye drop (suspension) as test drugs. The base for the eye drops was used as the control drug. The above-mentioned test drugs and the control drug were instilled four times a day for 7 days to 18 healthy subjects (6 per group) at 8:00, 11:00, 14:00 and 17:00. The tear film breakup time (sec) of the right eye was measured before instillation and 8 days after instillation. The difference between before and after the instillation was calculated, and taken as the mean variation of the tear film breakup time. The tear film breakup time was measured according to the conventional method. After instillation of fluorescein, the tear film was formed on the surface of the eye by nictitation.

For `C=CC[C@@H]1/C=C(\C)C[C@H](C)C[C@H](OC)[C@H]2O[C@@](O)(C(=O)C(=O)N3CCCC[C@H]3C(=O)O[C@H](/C(C)=C/[C@@H]3CC[C@@H](O)[C@H](OC)C3)[C@H](C)[C@@H](O)CC1=O)[C@H](C)C[C@@H]2OC` [FK506, 17-allyl-1,14-dihydroxy-12-[2-(4-hydroxy-3-methoxycyclohexyl)-1-methylvinyl]-23,25-dimethoxy-13,19,21,27-tetramethyl-11,28-dioxa-4-azatricyclo-[22.3 .1.0^4,9]octacos-18-ene-2,3,10,16-tetraone], the “subjective symptoms of dry eye (sense of dryness, foreign body and grittiness)” value [1] was “the subjective symptoms disappeared”, the “Mean variation of tear film breakup time” value (healthy subjects; 0.01% FK506 eye drop (suspension)) was “+0.58 sec” and the “Mean variation of tear film breakup time” value (healthy subjects; 0.1% FK506 eye drop (suspension)) was “+0.75 sec”.
